What was measured:
D4M.3A melanoma [1] = assay: D4M.3A tumor growth in RAG1-deficient hosts; type: in vivo, mice; conditions: hosts lack lymphocytes, FIG. 4D
Excerpt: Mice. Foxp3YFP-Cre (Ref. 1), Foxp3GFP-Cre-ERT2 (Ref 2), Rosa26YFP (Ref. 4), Ifng KO (Ref.5) and C57BL/6/J mice were purchased from Jackson laboratories. […] and James J. […] Animals were housed in specific pathogen-free facilities at the Massachusetts General Hospital (MGH) and all experimental studies were approved and performed in accordance with guidelines and regulations implemented by the MGH Institutional Animal Care and Use Committee (IACUC). For survival studies the age of mice at euthanasia mandated by a moribund state of health was recorded in Kaplan Meyer plots. […] Wherever possible, animals were randomized into treatment groups. Tumor volumes were measured every second to third day after start of treatments and calculated as V=(length×width^2)/2.

Treg = assay: In vitro treatment of sorted YFP+ Treg with Mepazine; type: cell-based, mice; conditions: 10 μM Mepazine
Protocol: (§1) FIGS. 13A-13K. (FIG. 13A), MHC II expression on tumor-associated macrophages in D4M.3A-implanted F^Cre/+×C1^++, f/+ or f/f mice. (FIG. 13B), D4M.3A tumor growth in mice treated with depleting αCD8 Ab from day 8 and treated with mepazine or not from day 9. (FIG. 13C), D4M.3A tumor growth in F^Cre/+×C1^+/+ or f/f mice treated with Mepazine or vehicle starting on day 9. (FIG. 13D), YFP^+ Treg were sorted from F^Cre×C1^+/+ mice and treated with 10 μM Mepazine of vehicle for 8 or 24 hours with or without concurrent αCD3/28 mAb TCR stimulation (8 h time-point only) and expression of Foxp3, markers of eTreg differentiation, cell viability, and frequency of eTreg were recorded. (FIG. 13E), RT-qPCR analysis of expression of Foxp3 and various Treg-associated genes in whole tumor tissue lysate following 3 days of Mepazine or vehicle treatment. (FIGS. 13F-13J), Composition of the tumor tissue immune infiltrate and frequencies of CD45^+ cells (FIG. 13G) and of various immune cell subsets (FIG. 13H) as well Ki67 expression by Tconv (FIG. 13I) and MHC II expression by macrophages (FIG. 13J) following 3 days of Mepazine or vehicle treatment. (FIG. 13K), Effector cytokine co-expression by tumor-infiltrating Treg following 12 days Mepazine and αPD-1 Ab treatment. *=p<0.05, **=p<0.01, and ***=p<0.001. *, #=any p<0.05 vs. C1^+/+ and C1^+/++ Mepazine, resp. in FIG. 13C.

whole tumor tissue = assay: Gene expression in whole tumor tissue (RT-qPCR); type: in vivo, mice
Protocol: Quantitative RT-PCR. For analysis of gene expression, RNA was isolated (AllPrep, DNA/RNA Mini kit; Qiagen) from CD4+ GFP+ Treg sorted to >99% purity from tdFNs and tumors, or from homogenized tumor tissue, and reverse transcribed using iScript cDNA Synthesis Kit (Bio-RAD). Quantitative RT-PCR was performed using iQ SYBR green supermix (Bio-RAD) and primers: […]
Results were expressed as 2-ΔCT relative to the house keeping gene GAPDH.

tumor-infiltrating Treg = assay: In situ effector cytokine expression and frequency of tumor-infiltrating Treg (flow cytometry); type: in vivo, mice; conditions: within 3 days of mepazine, FIG. 14K
Protocol: (§2) Preparation of single cell suspensions, antibody staining and flow cytometry. Heparinized peripheral blood collected through sub-mandibular vein puncture was treated with ACK red blood cell lysis buffer. LNs and spleens were passed through 40 μm cell strainers, followed by red blood cell lysis (spleens only). Tumors were minced into small fragments and treated with 1.5 mg/ml collagenase IV and 50 U/ml DNAse I for 30 min. at 37° C. under agitation.
Intracellular and nuclear proteins were stained for 60 minutes at room temperature after permeabilization and fixation (Mouse regulatory T cell staining Kit; eBioscience) using antibodies against: CD152/CTLA-4-(UC10-4B9), TNF (MP6-XT22), IL-4 (11B11), IL-17A (TC11-18H10.1), IFNγ (XMG1.2), and Ki67 (16A8) (BD Biosciences), BIM (C34C5), CARD11/CARMA1 (1D12) (Cell Signaling), Foxp3 (FJK-16s, eBioscience), GFP (rabbit polyclonal, Invitrogen). Polyclonal goat α-rabbit Ig (H+L) secondary antibody (Life Technologies) was used to reveal primary α-CARMA1 staining.
(§3) Preceding antibody staining, Fc receptors were blocked with TruStain fcX (Biolegend) for 20 minutes at 4° C., followed by dead cells staining using the fixable viability violet dye […] (Biolegend) for 15 minutes at room temperature. Cells were analyzed on LSRII, LSRFortessa or LSRFortessa X-20 flow cytometers (BD Biosciences), and data were analyzed with FlowJo software version 9.9.5.
Analysis of in situ and ex vivo stimulated cytokine secretion. To detect in situ cytokine secretion, mice were slowly i.v. injected with 500 μg of fully dissolved Brefeldin A in 250 μl PBS 6 h before sacrifice and intracellular cytokine staining.

D4M.3A tumor cells = assay: MHC I and PD-L1 expression on tumor cells after mepazine treatment; type: in vivo, mice; conditions: within 3 days of mepazine; FIG. 4E
Protocol: (FIG. 4A) Female Foxp3^GFP-CreERT2×CARMA1^+/+ and ×CARMA1^1111 mice were implanted with D4M.3A melanoma and starting on day 9 treated with tamoxifen until the end of the experiment as well as with three doses of 200 μg of the blocking α-PD-1 antibody 29F.1A12 or isotype control antibody, and tumor growth was recorded. […] (FIGS. 4C and 4D) D4M.3A tumor growth in C57BL/6 (FIG. 4C) or RAG1-deficient hosts (FIG. 4D) treated with MALT1 inhibitors mepazine or MI-2. (FIGS. 4E-4G) Mepazine effects within 3 days on MHC I and PD-L1 expression on tumor cells (FIG. 4E), expression of genes of adaptive immune resistance (Pdl1, Socs1), MHC I antigen presentation (Tap1), IFNγ-signaling (Stat1, Irf1), T cell recruitment (CXCL10), M1 macrophage activation (Nos2), and cytotoxicity (Gzmb) (FIG. 4F), as well as the frequency of CD4^+ and CD8^+ T cells (FIG. 4G). […] All graphs show means and either individual replicates or ±SEM.
Preparation of single cell suspensions, antibody staining and flow cytometry. […]
Preceding antibody staining, Fc receptors were blocked with TruStain fcX (Biolegend) for 20 minutes at 4° C., followed by dead cells staining using the fixable viability violet dye Zombie Red (Biolegend) for 15 minutes at room temperature. Cells were analyzed on LSRII, LSRFortessa or LSRFortessa X-20 flow cytometers (BD Biosciences), and data were analyzed with FlowJo software version 9.9.5.

D4M.3A melanoma [2] = assay: D4M.3A tumor growth in F^Cre/+×C1^+/+ or f/f mice treated with Mepazine or vehicle; type: in vivo; conditions: Mepazine from day 9, FIG. 13C
Protocol: as §1, with “(FIG. 13K), Effector cytokine co-expression by tumor-infiltrating Treg following 12 days Mepazine and αPD-1 Ab treatment. *=p<0.05, **=p<0.01, and ***=p<0.001. *, #=any p<0.05 vs. C1^+/+ and C1^+/++ Mepazine, resp. in FIG. 13C.” left out
Tumor growth studies and treatments. […] Tumor volumes were measured every second to third day after start of treatments and calculated as V=(length×width^2)/2. […]

[3] = test system: tumor tissue immune infiltrate; assay: Composition of the tumor tissue immune infiltrate; type: in vivo, mice; conditions: 3 days of Mepazine or vehicle; FIGS. 13F-13J
Protocol: as §1
as §2, with “Tumors were minced into small fragments and treated with 1.5 mg/ml collagenase IV and 50 U/ml DNAse I for 30 min. at 37° C. under agitation.” left out
as §3

| Structure (SMILES) | tumor growth in Rag1-deficient mice (D4M.3A melanoma [1]) | Foxp3 expression of Treg in vitro (Treg; 8 or 24 hours, FIG. 13D) | GITR expression of Treg in vitro (Treg; 8 or 24 hours, FIG. 13D) | effector cytokine expression of Treg in vitro (Treg; not shown) | expression of Treg-associated genes in tumor tissue (whole tumor tissue; 3 days of Mepazine or vehicle, FIG. 13E) | IFN-γ-regulated genes in whole tumor tissue (whole tumor tissue; 3 days of mepazine) | IFNγ-expression by tumor-infiltrating Treg (tumor-infiltrating Treg; in situ) | TNF-expression by tumor-infiltrating Treg (tumor-infiltrating Treg; in situ) | Treg frequency in tumor (tumor-infiltrating Treg) | MHC I expression on tumor cells (D4M.3A tumor cells) | PD-L1-expression on tumor cells (D4M.3A tumor cells) | addition to anti-tumor effect of CARMA1-deletion in Treg (D4M.3A melanoma [2]) | frequency of CTL in tumor tissue [3] | frequency of NK cells in tumor tissue [3] | immune cell infiltration of tumor tissue [3] |
| --- | --- | --- | --- | --- | --- | --- | --- | --- | --- | --- | --- | --- | --- | --- | --- |
| COCCOc1nc(-c2ccc(Cl)c(Cl)c2)n(-c2ccc(NC(=O)CCl)cc2)n1 [MI-2] | no effect on tumor growth | – | – | – | – | – | – | – | – | – | – | – | – | – | – |
| CN1CCCC(CN2c3ccccc3Sc3ccccc32)C1 (stereo not shown) [mepazine] | no effect on tumor growth | only a minor reduction | only a minor reduction | no effector cytokine expression | not altered | induction of a wide range of IFN-γ-regulated genes | rapid induction | rapid induction | did not reduce Treg frequency | up-regulation | up-regulation | did not add to the anti-tumor effect of CARMA1-deletion in Treg | increased | increased | generally enhanced |
